≈ marks a conversion by molar mass, not a printed value. Where two headings read alike, the source gives them in different places.
Legend:
[1] = system: Plasmodium falciparum K1 (chloroquine-resistant) parasite strain; experiment: In vitro antimalarial assay (p-LDH, 72 h) against Plasmodium falciparum K1 strain; assay type: cell-based; conditions: for IC50: Plasmodium falciparum; for fold better IC50 than those of 7 and 37: relative to 7 and 37
Protocol: Briefly, the P. falciparum K1 strain was cultured in human erythrocytes in RPMI medium supplemented with 10% human plasma at 37 °C, under 93% N2, 4% CO2, and 3% O2. Asynchronous parasites (2% hematocrit and 0.5 or 1% parasitaemia) were seeded in a 96-well microtiter plate and serially diluted test compounds were added. […] After 72-hours incubation, parasite lactate dehydrogenase (p-LDH) was assayed using a slight modification of the procedure reported by Makler et al.[31] and Vivas et al.[32]. The 50% inhibitory concentration (IC50) value was calculated from a dose response curve. This study was approved by “Kitasato Institute Hospital Research Ethics Committee (No12102)” using human erythrocytes donated by volunteers.
3. Biological evaluation of synthesized derivatives
3-1. In vitro cultivation of Plasmodium falciparum and the antimalarial assay In vitro cultivation and antimalarial activity against the Plasmodium falciparum […]
previously1). Briefly, the P. falciparum K1 strain was cultured in human erythrocytes in RPMI medium supplemented with 10% human plasma at 37 °C, under 93% N2, 4% CO2, and 3% O2. Asynchronous parasites (2% hematocrit and 0.5 or 1% parasitaemia) were seeded in a 96-well microtiter plate and serially diluted test compounds were added.
After 72-hours incubation, parasite lactate dehydrogenase (p-LDH) was assayed using a slight modification of the procedure reported by Makler et al2) and Vivas et al3). The 50% inhibitory concentration (IC50) value was calculated from a dose response curve.
This study was approved by “Kitasato Institute Hospital Research Ethics Committee (No12102)” using human erythrocytes donated by volunteers.
(§1) 3-2. Cytotoxic assay against MRC-5 cells
Measurement of cytotoxicity against human fetal lung fibroblast MRC-5 cells was carried out as described previously4).
1) K. Otoguro, A. Kohana, C. Manabe, A. Ishiyama, H. Ui, K. Shiomi, H. Yamada, S. […]
2) M. T. Makler, J. M. Ries, J. A. Williams, J. E. Bancroft, R. C. Piper, B. L. Gibbins, […]
D. J. Hinrichs, Am. J. Med. Hyg. 1993, 48, 739-741.
3) L. Vivas, A. Easton, H. Kendrick, A. Cameron, J.-L. Lavandera, D. Barros, F. G. de las Heras, R. L. Brady, S. L. Croft, Exper. Parasitol. 2005, 111, 105-114.
4) K. Otoguro, H. Ui, A. Ishiyama, N. Arai, M. Kobayashi, Y. Takahashi, R. Masuma, K. Shiomi, H. Yamada, S. Ōmura, J. Antibiot. 2003, 56, 322-324.

[2] = Cytotoxic assay against MRC-5 cells; conditions: human
Protocol: Measurement of cytotoxicity against human fetal lung fibroblast MRC-5 cells was carried out as described previously.
3. […]
as §1
Measurement of cytotoxicity against human fetal lung fibroblast MRC-5 cells
was carried out as described previously4). […]
4) K. Otoguro, H. Ui, A. Ishiyama, N. Arai, M. Kobayashi, Y. Takahashi, R. Masuma,
K. Shiomi, H. Yamada, S. Ōmura, J. Antibiot.

[3] = system: Plasmodium falciparum K1 (chloroquine-resistant) parasite strain; conditions: natural products and simple troponoids, previously reported, cited from earlier work; for IC50 Antimalarial activity (K1 strain) / Selectivity index MRC-5/K1: Table S1; for IC50: read-out: IC50, antimalarial activity against Plasmodium falciparum K1 strain
[4] = system: human fetal lung fibroblast MRC-5 cells; set-up: method as in earlier work; conditions: Table S1; natural products and simple troponoids, previously reported; cited from earlier work
P. berghei = system: P. berghei; set-up: method as in PMID 21063422, PMID 24713875; conditions: 2 mg/kg × 4, subcutaneous (s.c.), 4-day suppressive test; cited from earlier work
[5] = set-up: method as in PMID 21063422, PMID 24713875; conditions: s.c. dose of 5 mg/kg × 2 (day 0 and 1), by day 3; cited from earlier work
[6] = K1, Table S1, synthesized compounds and positive controls, read-out: IC50 Antimalarial activity (K1 strain)
[7] = K1, synthesized derivatives, in vitro, read-out: IC50 Antimalarial activity (K1 strain)
[8] = MRC-5 cells (fetal lung fibroblasts), IC50 Cytotoxicity (MRC-5), Table S1, synthesized compounds and positive controls
[9] = MRC-5 cells (fetal lung fibroblasts), IC50 Cytotoxicity (MRC-5), synthesized derivatives
[10] = Table S1, synthesized compounds and positive controls
[11] = MRC-5 cells (fetal lung fibroblasts), IC50 cytotoxicity (MRC-5)

SMILES	IC50 [1, 6] [mg/L]	IC50 [1, 7] [µM]	IC50 [2, 8] [mg/L]	IC50 [2, 9] [µM]	Selectivity index MRC-5/K1 [1, 10]	IC50 Antimalarial activity (K1 strain) [3] [mg/L]	IC50 [3] [µM]	also measured
COc1cc(C(=O)O)cc2c(c1=O)OC(C)(C)O2 [Compound 28]	> 12.5	> 50						
O=C(O)c1ccc(O)c(=O)c(O)c1 [Compound 40, Iso-stipitatic acid]	0.387	2.12 ± 0.11	18.6	102	47.82			fold better IC50 than those of 7 and 37 ([1]; K1 strain): approximately 2 fold
COc1c2c(cc(C(=O)O)cc1=O)OC(C)(C)O2 [Compound 27]	> 12.5	> 50						
CC1(C)Oc2cc(C=O)cc(O)c(=O)c2O1 [Compound 23]	> 12.5	> 56						
O=C(O)c1cc(O)cc(=O)c(O)c1 [Compound 2, stipitatic acid]						7.07 (≈ 38.8 µM)		Selectivity index MRC-5/K1 [3]: > 14; IC50 Cytotoxicity (MRC-5) [4]: > 100 mg/L
O=C(O)c1cc(O)c(O)c(=O)c(O)c1 [Compound 1, puberulic acid]	0.0087	0.044 ± 0.0029	4.18	289	480.46	0.01 (≈ 0.0505 µM)	0.05	in vivo efficacy, inhibition (P. berghei): 69%; Selectivity index MRC-5/K1 [3]: 5720; toxicity in vivo, mice dying [5]: four out of five; IC50 Cytotoxicity (MRC-5) [4]: 57.20 mg/L (≈ 289 µM)
COc1c(O)cc(C(=O)O)cc(O)c1=O [Compound 3, viticolin A]						9.92 (≈ 46.8 µM)	46.8	Selectivity index MRC-5/K1 [3]: > 10; melting point: 227 °C; IC50 Cytotoxicity (MRC-5) [4]: > 100 mg/L
COC(=O)c1cc2c(c(=O)c(OC)c1)OC(C)(C)O2 [Compound 26]	> 12.5	> 47						
COCc1ccc(O)c(=O)c(O)c1 [Compound 38, 4-Methoxymethyl-7-hydroxytropolone]	0.38	2.09 ± 0.027	0.00024	0.0013	0.0006			IC50 [2, 11]: 0.00132 µM; fold better IC50 than those of 7 and 37 ([1]; K1 strain): approximately 2 fold
O=c1cccccc1 [Compound 5, tropone, reference compound]						> 12.50	> 118	
COCc1cc(O)c(O)c(=O)c(O)c1 [Compound 43, 4-Methoxymethyl-6,7-dihydroxytropolone]	0.044	0.22 ± 0.0016	0.00181	0.091	0.041			melting point: 120 °C
COc1cc(C(=O)O)cc(O)c(=O)c1O [Compound 29, Iso-viticolin A]	0.073	0.34 ± 0.022	11.8	55.9	162.33			fold stronger activity than viticolin A (3) ([1]; K1 strain, relative to viticolin A (3)): approximately 100 fold
CC1(C)Oc2cc(C(=O)O)cc(O)c(=O)c2O1 [Compound 24]	> 12.5	> 50						
O=c1c(O)ccccc1O [Compound 7, 7-hydroxytropolone, reference compound]						0.89 (≈ 6.44 µM)	6.44	Selectivity index MRC-5/K1 [3]: 0.27; IC50 Cytotoxicity (MRC-5) [4]: 0.24 mg/L (≈ 1.74 µM); fold stronger IC50 value than that of 5 ([1]; K1 strain, relative to tropone (5)): > 18 fold
CCN(CC)CCCC(C)Nc1ccnc2cc(Cl)ccc12 (centres unmarked) [chloroquine, reference compound]								IC50 [2]: 18.6 mg/L; IC50 ([1]; K1, read-out: IC50 Antimalarial activity (K1 strain)): 0.18 mg/L
O=c1cccccc1O [Compound 6, tropolone, reference compound]						2.74 (≈ 22.4 µM)	22.4	
COc1cc(C(=O)O)cc(O)c(OC)c1=O [Compound 4, viticolin B]						0.84 (≈ 3.71 µM)	3.71	Selectivity index MRC-5/K1 [3]: 8.08; IC50 Cytotoxicity (MRC-5) [4]: 6.79 mg/L (≈ 30 µM)
C[C@@H]1CC[C@H]2[C@@H](C)C(=O)O[C@@H]3O[C@@]4(C)CC[C@@H]1[C@]32OO4 [artemisinin, reference compound]	0.0057				7.925			IC50 ([2]; IC50 Cytotoxicity (MRC-5)): 45.2 mg/L
O=c1c(O)cc(CO)cc(O)c1O [Compound 42, 4-Hydroxymethyl-6,7-dihydroxytropolone]	0.038	0.21 ± 0.0033	0.00435	0.024	0.115			melting point: 162 °C
COC(=O)c1cc2c(c(OC)c(=O)c1)OC(C)(C)O2 [Compound 25]	> 12.5	> 47						
[N-]=[N+]=NCc1cc(O)c(O)c(=O)c(O)c1 [Compound 44, 4-Azidomethyl-6,7-dihydroxytropolone]	0.096	0.46 ± 0.053	0.00073	0.0035				
CC(C)c1cccc(=O)c(O)c1 [Compound 8, hinokitiol, reference compound]						4.92 (≈ 30 µM)	30	Selectivity index MRC-5/K1 [3]: 1.20; IC50 Cytotoxicity (MRC-5) [4]: 5.80 mg/L (≈ 35.3 µM)
O=c1c(O)ccc(CO)cc1O [Compound 37, 4-Hydroxymethyl-7-hydroxytropolone]	0.728	4.33 ± 0.03	0.00057	0.0034	0.0008			IC50 [2, 11]: 0.00339 µM; melting point: 144 °C (dec.)
